In brackets after ≈: the same amount, converted by molar mass. Where two headings read alike, the source gives them in different places. Positions of bridges follow the written chain, without caps; N, C: chain ends. Non-standard residues stand in square brackets, D forms with d. Residues, ends and D or L forms follow the SMILES beside them. *: point of attachment. Ileψ(thiazoline)Cys = CC[C@H](C)[C@H](N)C1=N[C@H](C(=O)*)CS1; dOrn = NCCC[C@@H](N)C(=O)O
How the values were obtained:
[1] = test system: E. coli (ATCC 25922); conditions: for MIC of Compound (μg/ml) in the presence of PMBN (32 μg/ml): (b) No significant effect; for MIC of Compound (μg/ml) in the presence of PMBN (128 μg/ml): Table 1, (b) No effect
[2] = test system: E. coli (ATCC 25922); experiment: microbe, parasite or virus in culture; conditions: Escherichia coli
[3] = ATCC25922, read-out: MIC Compound alone, Table 12
[4] = ATCC25922, read-out: MIC Compound alone, Table 1

Row | Compound | MIC of Compound (μg/ml) in the presence of PMBN (32 μg/ml) ([1]; Table 12) | MIC of Compound (μg/ml) in the presence of PMBN (128 μg/ml) [1] | MIC [2, 4] [µg/mL] | further results
1 | CC1(C)S[C@@H]2[C@H](NC(=O)[C@H](N)c3ccc(O)cc3)C(=O)N2[C@H]1C(=O)O [Amoxicillin, reference compound] | 8 µg/mL | – | – | MIC [2, 3]: 32 µg/mL (≈ 87.6 µM)
2 | CC[C@H](C)[C@H](N)C1=N[C@H](C(=O)N[C@@H](CC(C)C)C(=O)N[C@H](CCC(=O)O)C(=O)N[C@H](C(=O)N[C@H]2CCCCNC(=O)[C@H](CC(N)=O)NC(=O)[C@@H](CC(=O)O)NC(=O)[C@H](Cc3cnc[nH]3)NC(=O)[C@@H](Cc3ccccc3)NC(=O)[C@H]([C@@H](C)CC)NC(=O)[C@@H](CCCN)NC2=O)[C@@H](C)CC)CS1 [Bacitracin, reference compound] ({Ileψ(thiazoline)Cys}-L[dE]IK[dOrn]I[dF]H[dD]N; lactam 4-C) | >64^(b) μg/ml | – | – | MIC Compound alone ([1]; ATCC 25922): >64 µg/mL
3 | CC1(C)S[C@@H]2[C@H](NC(=O)C(C(=O)O)c3ccccc3)C(=O)N2[C@H]1C(=O)O (stereo partly drawn) [Carbenicillin, reference compound] | 32^(b) μg/ml | – | – | MIC [2, 3]: 64 µg/mL (≈ 169 µM)
4 | CC(C)(O/N=C(\C(=O)N[C@@H]1C(=O)N2C(C(=O)[O-])=C(C[n+]3ccccc3)CS[C@H]12)c1csc(N)n1)C(=O)O [Ceftazidime, reference compound] | 0.15 µg/mL | – | – | MIC [2, 3]: 0.6 µg/mL (≈ 1.1 µM)
5 | CO/N=C(\C(=O)N[C@@H]1C(=O)N2C(C(=O)O)=C(CSc3nc(=O)c(=O)[nH]n3C)CS[C@H]12)c1csc(N)n1 [Ceftriaxone, reference compound] | 0.06^(b) μg/ml | – | – | MIC [2, 3]: 0.06 µg/mL (≈ 0.108 µM)
6 | O=C(N[C@H](CO)[C@H](O)c1ccc([N+](=O)[O-])cc1)C(Cl)Cl [Chloramphenicol, reference compound] | 1 µg/mL | – | – | MIC [2, 3]: 4 µg/mL (≈ 12.4 µM)
7 | CCNC(=O)Nc1nc2cc(-c3cnc(NC(=O)N4CC[C@@H](O)C4)nc3)cc(-c3ccc(C)cn3)c2s1 [Compound A-1, (3R)—N-[5-[2-(Ethylcarbamoylamino)-7-(5-methyl-2-pyridyl)-1,3-benzothiazol-5-yl]pyrimidin-2-yl]-3-hydroxy-pyrrolidine-1-carboxamide] | – | 0.12 µg/mL | > 64 | –
8 | CCNC(=O)Nc1nc2cc(-c3cc(C)n(Cc4cccc(C)n4)c(=O)c3)cc(-c3ccccn3)c2s1 [Compound A-2, 1-Ethyl-3-[5-[2-methyl-1-[(6-methyl-2-pyridyl)methyl]-6-oxo-4-pyridyl]-7-(2-pyridyl)-1,3-benzothiazol-2-yl]urea] | – | <=.12 μg/ml | > 64 | –
9 | CCNC(=O)Nc1nc2cc(-n3cnc(C)c3)cc(-c3ccccn3)c2s1 [Compound A-3, 1-Ethyl-3-[5-(4-methylimidazol-1-yl)-7-(2-pyridyl)-1,3-benzothiazol-2-yl]urea] | – | <=1 μg/ml | > 64 | MIC of Compound (μg/ml) in the presence of Colistin (1 μg/ml) ([1]; Table 2, colistin sub-inhibitory): ≦1 μg/ml; MIC of Compound (μg/ml) in the presence of PMB (0.5 μg/ml) ([1]; Table 3, PMB sub-inhibitory): ≦1 μg/ml; MIC ([2]; ATCC25922, read-out: MIC Compound alone, Table 2): > 64 µg/mL; MIC ([2]; ATCC25922, read-out: MIC Compound alone, Table 3): > 64 µg/mL
10 | CCNC(=O)Nc1nc2cc(-c3cc(C)n(C(C)c4ccc(C)nc4)c(=O)c3)cc(-c3ccccn3)c2s1 (stereo not drawn) [Compound A-4, 1-Ethyl-3-[5-[2-methyl-1-[1-(6-methyl-3-pyridyl)ethyl]-6-oxo-4-pyridyl]-7-(2-pyridyl)-1,3-benzothiazol-2-yl]urea] | – | 0.5 µg/mL | > 64 | –
11 | CCNC(=O)Nc1nc2cc(-c3cnc(NC(=O)OC)nc3)cc(-c3ccccn3)c2s1 [Compound A-5, Methyl N-[5-[2-(ethylcarbamoylamino)-7-(2-pyridyl)-1,3-benzothiazol-5-yl]pyrimidin-2-yl]carbamate] | – | 0.008 µg/mL | > 64 | –
12 | CCNC(=O)Nc1nc2cc(-c3cnc(NC(=O)N4CCCC4)nc3)cc(-c3cc(CN4CCOCC4)ccn3)c2s1 [Compound A-6, N-[5-[2-(Ethylcarbamoylamino)-7-[4-(morpholinomethyl)-2-pyridyl]-1,3-benzothiazol-5-yl]pyrimidin-2-yl]pyrrolidine-1-carboxamide] | – | 0.25 µg/mL | > 64 | –
13 | CCNC(=O)Nc1nc2cc(-c3cnc(C(C)(O)CO)nc3)ccc2s1 (stereo not drawn) [Compound A-7, 1-[5-[2-(1,2-Dihydroxy-1-methyl-ethyl)pyrimidin-5-yl]-1,3-benzothiazol-2-yl]-3-ethyl-urea] | – | 4 µg/mL | 32 (≈ 85.7 µM) | –
14 | CCNC(=O)Nc1nc2cc(-c3cnc(C(C)(O)CO)nc3)cc(C)c2s1 (stereo not drawn) [Compound A-9, 1-[5-[2-(1,2-Dihydroxy-1-methyl-ethyl)pyrimidin-5-yl]-7-methyl-1,3-benzothiazol-2-yl]-3-ethyl-urea] | – | 2 µg/mL | 32 (≈ 82.6 µM) | –
15 | CCNC(=O)Nc1nc2cc(-c3cnc(NS(=O)(=O)CC(=O)OC)nc3)cc(-c3ccc(C)cn3)c2s1 [Compound A-16, Methyl 2-[[5-[2-(ethylcarbamoylamino)-7-(5-methyl-2-pyridyl)-1,3-benzothiazol-5-yl]pyrimidin-2-yl]sulfamoyl]acetate] | – | 0.25 µg/mL | > 64 | –
16 | C=CCS(=O)(=O)Nc1ncc(-c2cc(-c3ccc(C)cn3)c3sc(NC(=O)NCC)nc3c2)cn1 [Compound A-17, 1-[5-[2-(allylsulfonylamino)pyrimidin-5-yl]-7-(5-methyl-2-pyridyl)-1,3-benzothiazol-2-yl]-3-ethyl-urea] | – | 0.03 µg/mL | 2 (≈ 3.92 µM) | –
17 | CCNC(=O)Nc1nc2cc(-c3cnc(NS(=O)(=O)C(C)(C)C)nc3)cc(-c3cnc(N(C)C)nc3)c2s1 [Compound A-18, 1-[5-[2-(tert-butylsulfonylamino)pyrimidin-5-yl]-7-[2-(dimethylamino)pyrimidin-5-yl]-1,3-benzothiazol-2-yl]-3-ethyl-urea] | – | 0.12 µg/mL | > 64 | –
18 | CCNC(=O)Nc1nc2cc(-c3cnc(CNS(C)(=O)=O)nc3)cc(-c3ccc(C)cn3)c2s1 [Compound A-19, 1-ethyl-3-[5-[2-(methanesulfonamidomethyl)pyrimidin-5-yl]-7-(5-methyl-2-pyridyl)-1,3-benzothiazol-2-yl]urea] | – | <=.12 μg/ml | > 64 | –
19 | CCNC(=O)Nc1nc2cc(-c3cnc(NS(=O)(=O)C(C)(C)C)nc3)cc(N3CCN(CCN4CCCC4)CC3)c2s1 [Compound A-20, 1-[5-[2-(tert-butylsulfonylamino)pyrimidin-5-yl]-7-[4-(2-pyrrolidin-1-ylethyl)piperazin-1-yl]-1,3-benzothiazol-2-yl]-3-ethyl-urea] | – | 32 µg/mL | > 64 | –
20 | CCNC(=O)Nc1nc2cc(-c3cccnc3)cc(C(=O)OC)c2[nH]1 [Compound A-22, Methyl 2-(ethylcarbamoylamino)-6-(3-pyridyl)-3H-benzimidazole-4-carboxylate, reference compound] | – | 0.5 µg/mL | 8 (≈ 23.6 µM) | –
21 | CNc1cc(F)cc2c1[nH]c1nc(Oc3ccc(C)nc3)nc(N3CCCC3)c12 [Compound A-23, 6-Fluoro-N-methyl-2-[(6-methyl-3-pyridyl)oxy]-4-pyrrolidin-1-yl-9H-pyrimido[4,5-b]indol-8-amine, reference compound] | – | 0.06 µg/mL | 1 (≈ 2.55 µM) | –
22 | CCNC(=O)Nc1nc2c(-c3ccc(C)cn3)cc(-c3cnc(NS(=O)(=O)C(C)(C)C)nc3)cn2n1 [Compound A-101, 1-[6-[2-(tert-butylsulfonylamino)pyrimidin-5-yl]-8-(5-methyl-2-pyridyl)-[1,2,4]triazolo[1,5-a]pyridin-2-yl]-3-ethyl-urea] | – | 2 µg/mL | > 64 | –
23 | CC(C)(C)S(=O)(=O)Nc1ncc(-c2cc(Br)c3sc(N)nc3c2)cn1 [Compound A-102, N-[5-(2-amino-7-bromo-1,3-benzothiazol-5-yl)pyrimidin-2-yl]-2-methyl-propane-2-sulfonamide] | – | 2 µg/mL | > 64 | –
24 | CCn1cc(C(=O)O)c(=O)c2cc(F)c(N3CCNCC3)nc21 [Enoxacin, reference compound] | 0.03^(b) μg/ml | – | – | MIC [2, 3]: 0.06 µg/mL (≈ 0.187 µM)
25 | CN(C)c1cc(NC(=O)CNC(C)(C)C)c(O)c2c1C[C@H]1C[C@H]3[C@H](N(C)C)C(O)=C(C(N)=O)C(=O)[C@@]3(O)C(O)=C1C2=O [Tigecyclin, reference compound] | ≦0.25^(b) μg/ml | – | – | MIC Compound alone ([1]; Table 12): ≦0.25 μg/ml
26 | Gentamicin [reference compound] | 8^(b) μg/ml | – | – | MIC Compound alone ([1]; Table 12): 8 µg/mL
27 | Polymyxin B [PMB, reference compound] | – | – | – | MIC PMB alone ([1]; Table 3): 1 µg/mL

From patent US20170007615A1, “Antibacterial Compounds” (priority 2014, published 2017)
